The test system of this assay is fungi of gray mold of cucumber. Nature of the assay: Controlling effect on gray mold of cucumber, foliar spray on potted cucumber plants. The class given is in vivo, Botrytis cinerea. Particulars: single compound, 5.0 ppm, 10° C. humid for 6 days after inoculation. As to the method: Plastic pots were filled with sandy loam and sown with cucumber (Sagamihanjiro), followed by growing in a greenhouse for 12 days. A wettable powder of the Compound (I-j) and a wettable powder of procymidone were separately diluted with water, and these dilutions were tank-mixed, then the tank-mixed dilution of the prescribed concentrations of the Compound (I-j) and procymidone was prepared. Said tank-mixed dilution was sprayed to foliage of said cucumber so as to adhere the dilution sufficiently to the surfaces of its leave. After air-drying, a PDA medium including hyphae of the fungi of gray mold of cucumber was placed on the leave surfaces of said cucumber. After inoculation, the plastic pots were placed under a humid environment of 10° C. for 6 days, and then the controlling effect was examined. […]
At the examination, the following evaluation indices was used. The attack rates were calculated with Scheme 1, and then on the basis of the attack rates, the controlling values were calculated with Scheme 2. […]
The controlling effect, which is expected when treatment is carried out by mixing the given two species of active ingredient compounds, is generally calculated according to the following Colby equation described at Scheme 3. […]

Each structure is given as a SMILES string.

Turning to `CC12CC1(C)C(=O)N(c1cc(Cl)cc(Cl)c1)C2=O` (stereo not shown) [(II), N-(3,5-dichlorophenyl)-1,2-dimethylcyclopropane-1,2-dicarboximide], the Actual controlling value turned out to be 0%.

(Values after US6521568B1, “Plant disease controlling compositions and plant disease controlling method” (Sumitomo Chemical Company, Limited, priority 1999, dated 2003).)
